# Source: patent publication US20070123571A1, “Use of a compound in the treatment of sleep disorders” (priority 2003, published 2007)
# Where a name gives a salt, the structure may show the parent alone.
# How the values were obtained:
# [1] = single doses 10 mg or 20 mg sustained release at bedtime, volunteers, compared with placebo; cited from earlier work
# [2] = Karolinska 9-point scale: alertness / sleepiness on waking; type: in vivo, human
# Source text: By the term felt alert is meant that an individual felt at least alert on waking. Preferably, the term is defined as the individual felt alert, very alert or extremely alert in accordance with the Karolinska 9-point scale. By the term felt sleepy is meant that an individual felt sleepy on waking. Preferably, the term is defined as the individual felt sleepy or very sleepy in accordance with points 8 or 9 of the Karolinska 9-point scale. Preferably, by the use of the present invention, the response of feeling extremely alert, very alert or alert as determined, for instance, in accordance with the Karolinska 9-point scale, is improved by at least 2%, more preferably, by at least, 5%, most preferably by at least 10%, as compared with an equivalent dose of placebo. Preferably, by the use of the present invention, the response of feeling sleepy and needing to make some effort to stay awake or very sleepy, as determined, for instance, in accordance with points 8 and 9 of the Karolinska 9 point scale, is improved (i.e. decreased) by at least 2%, more preferably, by at least, 4%, most preferably, by at least 10%, as compared with an equivalent dose of placebo.
# [3] = Loughborough sleep log, morning log: awoke refreshed / quality of sleep responses; type: in vivo, human
# Source text: Typically, the percentage of individuals who, after taking a dose of triprolidine before sleeptime, wake refreshed after sleeping is in the range 1-100%, more typically, 5-70%, most typically 10-35%. An especially typical range as aforesaid is 15-30% or even more especially 20-30%. Typically, by the terms “waking refreshed” or “wake refreshed” is meant that an individual felt at least refreshed on waking, preferably, the terms are defined as the individual felt very refreshed or refreshed in accordance with the Loughborough sleep log.
# The degree of refreshedness and quality of sleep may be determined by the “morning” log of the Loughborough sleep log with the highest degree of refreshedness or quality of sleep being represented as 1 and the lowest being represented as 5. Accordingly, the percentage increase in refreshedness or quality of sleep is measured in this context by the decrease in the mean refreshedness or quality of sleep.
# Preferably, by the use of the present invention, the response of awakening very refreshed or refreshed, as determined, for instance, by the morning log of the Loughborough sleep log, is improved by at least 20%, more preferably, by at least, 30%, most preferably by at least 40%, as compared with an equivalent dose of placebo.
# Preferably, by the use of the present invention, the response of sleeping extremely well or very well, as determined, for instance, in accordance with the morning log of the Loughborough sleep log, is improved by at least 20%, more preferably, at least, 35%, most preferably at least 50%, as compared with an equivalent dose of placebo.
# Preferably, by the use of the present invention, the response of sleeping extremely well or very well, as determined, for instance, in accordance with the morning log of the Loughborough sleep log, is found for at least 20% of individuals, more preferably, at least 25%, most preferably, at least 30%. For example over 35% of individuals had such a response.
compound,measurement,setting,value
Cc1ccc(/C(=C\CN2CCCC2)c2ccccn2)cc1 [TRP•HCl•H2O],sleep onset latency (time required to fall asleep),[1],did not significantly alter
same,total sleep time,[1],no effect
same,wakefulness during sleep,[1],no effect
same,"(b) I feel (i) sleepy, [and need to make] some effort or (ii) very sleepy, a great effort to keep awake","[2]; 2.5 mg dose, Monday",11.5%
same,"Karolinska 9-point scale (a) I feel extremely alert, very alert or alert","[2]; 2.5 mg dose, Monday",21.3%
same,"(b) I feel (i) sleepy, [and need to make] some effort or (ii) very sleepy, a great effort to keep awake","[2]; 2.5 mg dose, Tuesday",13.1%
same,"Karolinska 9-point scale (a) I feel extremely alert, very alert or alert","[2]; 2.5 mg dose, Tuesday",21.3%
same,"(b) I feel (i) sleepy, [and need to make] some effort or (ii) very sleepy, a great effort to keep awake","[2]; 2.5 mg dose, Wednesday",6.5%
same,"Karolinska 9-point scale (a) I feel extremely alert, very alert or alert","[2]; 2.5 mg dose, Wednesday",21.0%
same,"(b) I feel (i) sleepy, [and need to make] some effort or (ii) very sleepy, a great effort to keep awake","[2]; 5 mg dose, Monday",12.5%
same,"Karolinska 9-point scale (a) I feel extremely alert, very alert or alert","[2]; 5 mg dose, Monday",6.3%
same,"(b) I feel (i) sleepy, [and need to make] some effort or (ii) very sleepy, a great effort to keep awake","[2]; 5 mg dose, Tuesday",17.5%
same,"Karolinska 9-point scale (a) I feel extremely alert, very alert or alert","[2]; 5 mg dose, Tuesday",9.5%
same,"(b) I feel (i) sleepy, [and need to make] some effort or (ii) very sleepy, a great effort to keep awake","[2]; 5 mg dose, Wednesday",12.7%
same,"Karolinska 9-point scale (a) I feel extremely alert, very alert or alert","[2]; 5 mg dose, Wednesday",17.5%
same,Loughborough Sleep Log: Awoke Very Refreshed or Refreshed Responses,"[3]; 2.5 mg dose, Monday",23%
same,Loughborough Sleep Log: Last Night I Slept Extremely Well or Very Well Responses,"[3]; 2.5 mg dose, Monday",41.4%
same,Loughborough Sleep Log: Awoke Very Refreshed or Refreshed Responses,"[3]; 2.5 mg dose, Tuesday",23%
same,Loughborough Sleep Log: Last Night I Slept Extremely Well or Very Well Responses,"[3]; 2.5 mg dose, Tuesday",41.8%
same,Loughborough Sleep Log: Awoke Very Refreshed or Refreshed Responses,"[3]; 2.5 mg dose, Wednesday",25.8%
same,Loughborough Sleep Log: Last Night I Slept Extremely Well or Very Well Responses,"[3]; 2.5 mg dose, Wednesday",37.9%
same,Loughborough Sleep Log: Awoke Very Refreshed or Refreshed Responses,"[3]; 5 mg dose, Monday",11.5%
same,Loughborough Sleep Log: Last Night I Slept Extremely Well or Very Well Responses,"[3]; 5 mg dose, Monday",50.9%
same,Loughborough Sleep Log: Awoke Very Refreshed or Refreshed Responses,"[3]; 5 mg dose, Tuesday",8.2%
same,Loughborough Sleep Log: Last Night I Slept Extremely Well or Very Well Responses,"[3]; 5 mg dose, Tuesday",28.8%
same,Loughborough Sleep Log: Awoke Very Refreshed or Refreshed Responses,"[3]; 5 mg dose, Wednesday",14.8%
same,Loughborough Sleep Log: Last Night I Slept Extremely Well or Very Well Responses,"[3]; 5 mg dose, Wednesday",39.3%
